Data set [1] has as its system PC-3 (prostate cancer). Put plainly: MTT antiproliferative assay, PC-3. Format: cell-based. The note with it: 48 h incubation. How it is done:
(§1) Two series of new tetrahydropyridothienopyrimidines were evaluated for their cytotoxicity against a panel of cell lines, including MCF-7 (breast cancer), SW480 (colon cancer), PC-3 (prostate cancer), HEPG-2 (liver cancer) and HUVEC (human umbilical vein endothelial cell) using 3-(4,5-dimethyl- thiazol-2-yl)-2,5-diphenyltetrazolium bromide (MTT) assay. Sorafenib was used as a positive control. The cytotoxicity is expressed as the concentration that inhibits 50% of cell viability (IC50). […] The preliminary SAR is evaluated on the basis of cytotoxicity results of phenyl derivatives (11a–k) and pyridine derivatives (11l–11y).The mesomeric effect didn’t improve the cytotoxicity of compound 11d in the first series.
(§2) Cytotoxicity of the compounds was measured by detecting the ability of cells in transforming MTT into a purple formazan dye. The different cell lines were provided by the National Cell Bank of Iran (Pastor Institute, Tehran, Iran). The required materials and reagents were purchased from Sigma. After the cell culture in RPMI-1640 medium and DMEM containing 10% FBS (Gibco, Milano, Italy), the suspension of MCF-7 (7000) and other cells (5000) were poured into 96 well plates and incubated in a humidified incubator containing 5% CO2 at 37 °C for 24 h. Subsequently, a solution of the compounds in DMSO was added to these plates and incubated for 48 h. After incubation, the solution of 5% 3-(4,5-Dimethyl-2-thiazolyl)-2,5-diphenyl-2H-tetrazolium bromide (MTT) was added to all the wells and incubation was continued for another 4 h. The record of color intensity of the formazan solution was at 570 nm by Bio-Rad microplate reader (Model 680) which reflects the cell growth condition.

The test system of data set [2] is HEPG-2 (liver cancer). Put plainly: MTT antiproliferative assay, HEPG-2. The class given is cell-based. How it is done:
as §1, §2

Data set [3] deals with MCF-7 (breast cancer). Put plainly: MTT antiproliferative assay, MCF-7. Format: cell-based. How it is done:
as §1, §2

The test system of data set [4] is SW480 (colon cancer). Nature of the data set: MTT antiproliferative assay, SW480. The class given is cell-based. As to the method: as §1, §2
The subject of data set [5] is HUVEC (human umbilical vein endothelial cell). Nature of the data set: MTT antiproliferative assay, HUVEC. Format: cell-based. The note with it: MTT assay, 48 h incubation. As to the method:
as §1, §2

[6] abbreviates: Homo sapiens, HepG2, 48 h incubation.
Setting [7] is: Homo sapiens, MCF7, 48 h incubation.
Where [8] appears, read: Homo sapiens, SW480, 48 h incubation.

The compound `O=C(Nc1ccccc1)Nc1nnc(Sc2ncnc3sc4c(c23)CCN(Cc2ccccc2)C4)s1` [Compound 11a, 1-(5-((7-benzyl-5,6,7,8-tetrahydropyrido[4',3':4,5]thieno[2,3-d]pyrimidin-4-yl)thio)-1,3,4-thiadiazol-2-yl)-3-phenylurea] yielded a melting point of 230 to 232 °C. The same compound registered an IC50 in data set [1] of 34.4 ± 1.64 µM. This compound registered a half-inhibitory concentration (IC50) in data set [2] (setting [6]) of 7.34 ± 0.01 µM. For the same compound, the IC50 in data set [3] (setting [7]) came out at 23.34 ± 0.18 µM. Half-maximal inhibition in data set [4] (setting [8]) (IC50) required 24.5 ± 0.72 µM. This compound gave a half-inhibitory concentration (IC50) in data set [5] (Homo sapiens, HUVEC) of 19.06 ± 0.12 µM.

As for `Cc1ccc(NC(=O)Nc2nnc(Sc3ncnc4sc5c(c34)CCN(Cc3ccccc3)C5)s2)cc1` [Compound 11c, 1-(5-((7-benzyl-5,6,7,8-tetrahydropyrido[4',3':4,5]thieno[2,3-d]pyrimidin-4-yl)thio)-1,3,4-thiadiazol-2-yl)-3-(p-tolyl)urea], the IC50 in data set [1] stood at 32.21 ± 0.3 µM; in data set [2] (setting [6]), 24.6 ± 0.39 µM; in data set [3] (setting [7]), 42.87 ± 0.32 µM; in data set [4] (setting [8]), 70.2 ± 2.71 µM; in data set [5] (Homo sapiens, HUVEC) it was 26.12 ± 0.15 µM.

On to `COc1ccc(NC(=O)Nc2nnc(Sc3ncnc4sc5c(c34)CCN(Cc3ccccc3)C5)s2)cc1` [Compound 11d, 1-(5-((7-benzyl-5,6,7,8-tetrahydropyrido[4',3':4,5]thieno[2,3-d]pyrimidin-4-yl)thio)-1,3,4-thiadiazol-2-yl)-3-(4-methoxyphenyl)urea], for which the melting point fell in the range of 280 to 282 °C. Further, the IC50 in data set [1] worked out at 44 ± 1.52 µM. The same compound showed an IC50 in data set [2] (setting [6]) of 43.92 ± 0.16 µM. This compound also returned a 50% inhibitory concentration (IC50) in data set [3] (setting [7]) of 51.92 ± 0.47 µM. Besides, in data set [4] (setting [8]), the IC50 was 45.1 ± 1.7 µM. In data set [5] (Homo sapiens, HUVEC), this compound came in with a 50% inhibitory concentration (IC50) of 44.15 ± 0.22 µM.

`O=C(Nc1cccc(F)c1)Nc1nnc(Sc2ncnc3sc4c(c23)CCN(Cc2ccccc2)C4)s1` [Compound 11e, 1-(5-((7-benzyl-5,6,7,8-tetrahydropyrido[4',3':4,5]thieno[2,3-d]pyrimidin-4-yl)thio)-1,3,4-thiadiazol-2-yl)-3-(3-fluorophenyl)urea] displayed a melting point of 144 to 146 °C. In data set [1], this compound displayed an IC50 of 42.8 ± 1.82 µM. For the same compound, half-maximal inhibition in data set [2] (setting [6]) (IC50) required 9.84 ± 0.06 µM. In addition, the half-inhibitory concentration (IC50) in data set [3] (setting [7]) turned out to be 13 ± 0.18 µM. The compound also displayed a half-maximal inhibitory concentration (IC50) in data set [4] (setting [8]) of 65.6 ± 1.74 µM. Also, 27.48 ± 0.07 µM corresponded to half-maximal inhibition in data set [5] (Homo sapiens, HUVEC) (IC50).

On to `O=C(Nc1ccc(F)cc1)Nc1nnc(Sc2ncnc3sc4c(c23)CCN(Cc2ccccc2)C4)s1` [Compound 11f, 1-(5-((7-benzyl-5,6,7,8-tetrahydropyrido[4',3':4,5]thieno[2,3-d]pyrimidin-4-yl)thio)-1,3,4-thiadiazol-2-yl)-3-(4-fluorophenyl)urea], for which the melting point lay in the range of 166 to 168 °C. In data set [1], the midpoint of inhibition, the IC50, lay at 41.4 ± 0.46 µM. In data set [2] (setting [6]), this compound yielded an IC50 of 30.7 ± 0.44 µM. The same compound returned an IC50 in data set [3] (setting [7]) of 45.04 ± 0.41 µM. The half-maximal inhibitory concentration (IC50) in data set [4] (setting [8]) was found to be 61.3 ± 2.02 µM. The IC50 in data set [5] (Homo sapiens, HUVEC) is 47.98 ± 0.27 µM.

With `O=C(Nc1ccc(Cl)cc1)Nc1nnc(Sc2ncnc3sc4c(c23)CCN(Cc2ccccc2)C4)s1` [Compound 11g, 1-(5-((7-benzyl-5,6,7,8-tetrahydropyrido[4',3':4,5]thieno[2,3-d]pyrimidin-4-yl)thio)-1,3,4-thiadiazol-2-yl)-3-(4-chlorophenyl)urea], the IC50 was 41.6 ± 1.1 µM in data set [1]; 46.96 ± 0.35 µM in data set [2] (setting [6]); 62.4 ± 2.94 µM in data set [3] (setting [7]); 56.5 ± 1.28 µM in data set [4] (setting [8]); 27.29 ± 0.19 µM in data set [5] (Homo sapiens, HUVEC).

For the compound `Cc1ccc(NC(=O)Nc2nnc(Sc3ncnc4sc5c(c34)CCN(Cc3ccccc3)C5)s2)cc1Cl` [Compound 11i, 1-(5-((7-benzyl-5,6,7,8-tetrahydropyrido[4',3':4,5]thieno[2,3-d]pyrimidin-4-yl)thio)-1,3,4-thiadiazol-2-yl)-3-(3-chloro-4-methylphenyl)urea], the half-inhibitory concentration (IC50) in data set [1] amounted to 41.8 ± 1.22 µM; in data set [2] (setting [6]), 3.33 ± 0.07 µM; in data set [3] (setting [7]) it was 50.8 ± 0.54 µM; in data set [4] (setting [8]), 69.6 ± 1.88 µM; in data set [5] (Homo sapiens, HUVEC), 24.63 ± 0.22 µM.

Compound `O=C(Nc1cccc(C(F)(F)F)c1)Nc1nnc(Sc2ncnc3sc4c(c23)CCN(Cc2ccccc2)C4)s1` [Compound 11j, 1-(5-((7-benzyl-5,6,7,8-tetrahydropyrido[4',3':4,5]thieno[2,3-d]pyrimidin-4-yl)thio)-1,3,4-thiadiazol-2-yl)-3-(3-(trifluoromethyl)phenyl)urea] came in with a melting point of 181 to 183 °C. Also, the half-inhibitory concentration (IC50) in data set [1] is 73.8 ± 2.92 µM. This compound also showed an IC50 in data set [2] (setting [6]) of 63 ± 0.64 µM. Moreover, the half-inhibitory concentration (IC50) in data set [3] (setting [7]) came out at 68.94 ± 0.63 µM. 46.8 ± 1.13 µM corresponded to half-maximal inhibition in data set [4] (setting [8]) (IC50). The compound further gave an IC50 in data set [5] (Homo sapiens, HUVEC) of 67.1 ± 1.85 µM.

As for `O=C(Nc1ccc(Cl)c(C(F)(F)F)c1)Nc1nnc(Sc2ncnc3sc4c(c23)CCN(Cc2ccccc2)C4)s1` [Compound 11k, 1-(5-((7-benzyl-5,6,7,8-tetrahydropyrido[4',3':4,5]thieno[2,3-d]pyrimidin-4-yl)thio)-1,3,4-thiadiazol-2-yl)-3-(4-chloro-3-(trifluoromethyl)phenyl)urea], the IC50 stood at 23.15 ± 0.21 µM in data set [1]; 28.46 ± 0.25 µM in data set [2] (setting [6]); 24.66 ± 0.24 µM in data set [3] (setting [7]); 63.5 ± 1.37 µM in data set [4] (setting [8]); 37.56 ± 0.31 µM in data set [5] (Homo sapiens, HUVEC).

Regarding `COc1ccc(NC(=O)Nc2nnc(Sc3ncnc4sc5c(c34)CCN(Cc3ccncc3)C5)s2)cc1` [Compound 11p, (4-Methoxyphenyl)-3-(5-((7-(pyridin-4-ylmethyl)-5,6,7,8-tetrahydropyrido[4',3':4,5]thieno[2,3-d]pyrimidin-4-yl)thio)-1,3,4-thiadiazol-2-yl)urea], the IC50 in data set [1] stood at 43.5 ± 1.62 µM; in data set [2] (48 h incubation), 67.4 ± 0.33 µM; in data set [3] (48 h incubation) it was 3.72 ± 0.55 µM; in data set [4] (48 h incubation) it was 29.4 ± 1.01 µM; in data set [5], 2.86 ± 0.05 µM.

`O=C(Nc1ccc(F)cc1)Nc1nnc(Sc2ncnc3sc4c(c23)CCN(Cc2ccncc2)C4)s1` [Compound 11r, 1-(4-fluorophenyl)-3-(5-((7-(pyridin-4-ylmethyl)-5,6,7,8-tetrahydropyrido[4',3':4,5]thieno[2,3-d]pyrimidin-4-yl)thio)-1,3,4-thiadiazol-2-yl)urea]: the IC50 in data set [1] came out at 18.98 ± 0.11 µM; in data set [2] (setting [6]), 67.5 ± 1.38 µM; in data set [3] (setting [7]), 5.69 ± 0.03 µM; in data set [4] (setting [8]) it was 66.3 ± 1.24 µM; in data set [5] (Homo sapiens, HUVEC), 48.2 ± 0.62 µM.

Take `O=C(Nc1cccc(Cl)c1)Nc1nnc(Sc2ncnc3sc4c(c23)CCN(Cc2ccncc2)C4)s1` [Compound 11t, 1-(3-chlorophenyl)-3-(5-((7-(pyridin-4-ylmethyl)-5,6,7,8-tetrahydropyrido[4',3':4,5]thieno[2,3-d]pyrimidin-4-yl)thio)-1,3,4-thiadiazol-2-yl)urea]: the IC50 is 3.02 ± 1.12 µM in data set [1]; 85 ± 3.4 µM in data set [2] (setting [6]); 12.68 ± 0.05 µM in data set [3] (setting [7]); 14.6 ± 0.32 µM in data set [4] (setting [8]); 67 ± 2.02 µM in data set [5] (Homo sapiens, HUVEC).

Consider `O=C(Nc1ccc(Cl)c(Cl)c1)Nc1nnc(Sc2ncnc3sc4c(c23)CCN(Cc2ccncc2)C4)s1` [Compound 11v, 1-(3,4-dichlorophenyl)-3-(5-((7-(pyridin-4-ylmethyl)-5,6,7,8-tetrahydropyrido[4',3':4,5]thieno[2,3-d]pyrimidin-4-yl)thio)-1,3,4-thiadiazol-2-yl)urea], for which the IC50 in data set [1] is 55.3 ± 1.82 µM; in data set [2] (setting [6]), 26.4 ± 0.9 µM; in data set [3] (setting [7]) it was 10.37 ± 0.03 µM; in data set [4] (setting [8]), 67.7 ± 1.55 µM; in data set [5] (Homo sapiens, HUVEC), 68.4 ± 1.44 µM.
